Source: patent US20220177446A1, “ALKYNE COMPOUNDS AS IRAK INHIBITORS, PREPARATION METHODS AND MEDICINAL USES THEREOF” (Eternity Bioscience Inc., priority 2020, published 2022)
Like-named read-outs stand apart in the source and are kept apart here.

Tests used:
[1] = molecular target: T1, full length human IRAK4 protein (Homo sapiens, UniProt Q9NWZ3); assay: IRAK4 Biochemical Assay (Promega ADP-Glo IRAK4 Kinase Enzyme System); details: 3 nM enzyme, 250 μM ATP; for IC50: 2 μM MBP, 60 min at room temperature; for IRAK4 Biochemical Assay Max Inhibition (%): maximum inhibition
T1 construct: Purified full length human IRAK4 protein; purchased Signal Chem I12-10G-125
T1 sequence (Q9NWZ3 1-460): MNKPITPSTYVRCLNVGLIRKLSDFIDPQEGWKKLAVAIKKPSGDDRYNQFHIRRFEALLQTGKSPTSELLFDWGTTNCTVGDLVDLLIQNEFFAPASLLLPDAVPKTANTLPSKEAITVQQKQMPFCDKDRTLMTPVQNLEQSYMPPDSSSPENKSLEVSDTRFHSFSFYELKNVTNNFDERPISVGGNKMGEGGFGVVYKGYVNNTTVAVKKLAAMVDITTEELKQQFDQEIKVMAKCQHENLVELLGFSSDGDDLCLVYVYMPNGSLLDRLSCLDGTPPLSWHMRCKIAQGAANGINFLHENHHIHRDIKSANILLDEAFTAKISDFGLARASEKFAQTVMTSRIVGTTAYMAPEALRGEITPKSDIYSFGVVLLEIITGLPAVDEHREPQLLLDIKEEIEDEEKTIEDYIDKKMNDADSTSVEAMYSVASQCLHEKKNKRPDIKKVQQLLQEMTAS
Procedure: For the routine compound screening, an IRAK4 kinase assay was performed as follows using Promega ADP-Glo IRAK4 Kinase Enzyme System (Promega, Cat #2198-AD). Purified full length human IRAK4 protein (Signal Chem; Cat #I12-10G-125) was diluted to a concentration 6 nM in assay buffer (25 mM MOPS, pH 7.2, 12.5 mM β-glycerol-phosphate, 25 mM MgCl2, 5 mM EGTA, 2 mM EDTA, 0.0025% Brij-35, add 0.25 mM DTT to Kinase Assay Buffer prior to use) containing IRAK4 inhibitor at 2× the final concentration in 0.4% DMSO. The reaction was performed in PerkinElmer Proxiplate-384 plus white plate (Fisher Scientific, Cat #50-905-2761) and started by the addition of an equal volume of the assay buffer containing 4 μM native swine myelin basic protein (MBP) and 500 μM ATP to achieve a final concentration of 3 nM enzyme, 2 μM MBP, 250 μM ATP, 1× compound, and 0.2% DMSO. The kinase reaction was allowed to run for 60 min at room temperature (25-27° C.), then 5 μL of ADP-Glo was added to the reaction in each well followed by 40 minutes-incubation at RT. To detect converted […], 10 μL Detection Buffer was added into each well and Incubate at RT in dark for 30 minutes. Finally, luminescence was read using Tecan with 1000 ms of integration time. The luminescent signal positively correlates with ADP amount and kinase activity. Data was analyzed by GraphPad Prism and IC50 was calculated using function log(inhibitor) vs. response—Variable slope (four parameters). Percentage of inhibition was calculated as below:
(§1) % inhibition=(1−(Reading(Sample)−Reading(Negative Control))/(Reading(Positive Control)−Reading(Negative Control)))×100%
The 0% inhibition value comes from the Reading of Positive Control wells having 0 nM compound. The 100% inhibition value comes from the Reading of Negative Control wells having no IRAK4 kinase.

[2] = molecular target: T2, IRAK4 (Homo sapiens, UniProt Q9NWZ3); assay: IRAK4 Human PBMC TNFα Cell Based Assay (AlphaLISA); details: TNFα measured
T2 construct: host or cells: human peripheral blood mononuclear cells (PBMCs)
T2 sequence (Q9NWZ3 1-460): T1 sequence (Q9NWZ3 1-460)
Procedure: In this assay, serially diluted compounds were incubated with 1×10^4 human peripheral blood mononuclear cells (PBMCs) from STEMCELL (Cat #70025.1) per well of 384-well plate (Fisher Scientific; 50-905-2761) and cultured with TexMACS medium (Miltenyi, Cat #130-097-196), stimulated by R848 (0.5 μM) or IL-1β (10 ng/ml). Plates were covered with lids and incubated for 4 h (R848, Fisher Scientific, Cat #NC9801605) or 24 h (IL-1β, Fisher Scientific, Cat #ENRIL1BI) at 37° C. in a humidified tissue-culture incubator. After a brief centrifugation at 1000 rpm for 5 minutes, 5 μl of culture medium was used for the measurement of the TNFα amount using TNFα (human) AlphaLISA Detection Kit (PerkinElmer, Cat #AL208C) according to manufacturer's protocol. A biotinylated anti-TNFα antibody binds to the Streptavidin-coated Donor beads while another anti-TNFα antibody is conjugated to AlphaLISA Acceptor beads. In the presence of the TNFα, the beads come into close proximity. The excitation of the Donor beads causes the release of singlet oxygen molecules that triggers a cascade of energy transfer in the Acceptor beads, resulting in a sharp peak of light emission at 615 nm. AlphaLISA assay plates were read using PHERAstar. Percentage of inhibition was calculated as below:
as §1
The 0% inhibition value comes from the Reading of Positive Control wells having 0 nM compound. The 100% inhibition value comes from the Reading of Negative Control wells having no R848 or IL-1β.

[3] = human PBMCs stimulated by IL-1β (10 ng/ml), 24 h, read-out: IRAK4 PBMC AlphaLISA IL-1β (IC50)
[4] = human PBMCs stimulated by R848 (0.5 μM), 4 h, read-out: IRAK4 PBMC AlphaLISA R848 (IC50)

## CC[C@@H]1[C@H](F)C(=O)N[C@@H]1COc1ncc(C#C[C@@H](C)O)c2cc(C(N)=O)c(OC)cc12 [Example 19, 1-(((2S,3S,4S)-3-ethyl-4-fluoro-5-oxopyrrolidin-2-yl)methoxy)-4-((R)-3-hydroxybut-1-yn-1-yl)-7-methoxyisoquinoline-6-carboxamide]
[1]
  IC50: 0.013 µM
  IRAK4 Biochemical Assay Max Inhibition (%): 100.0%
[2]; [3]
  IC50: 0.0013 µM
[2]; [4]
  IC50: 0.003 µM

## CC[C@@H]1[C@H](F)C(=O)N[C@@H]1COc1ncc(C#Cc2cn[nH]c2)c2cc(C(N)=O)c(OC)cc12 [Example 20, 4-((1H-pyrazol-4-yl)ethynyl)-1-(((2S,3S,4S)-3-ethyl-4-fluoro-5-oxopyrrolidin-2-yl)methoxy)-7-methoxyisoquinoline-6-carboxamide]
[1]
  IC50: 0.022 µM
  IRAK4 Biochemical Assay Max Inhibition (%): 100.0%
[2]; [3]
  IC50: 0.0017 µM
[2]; [4]
  IC50: 0.003 µM

## CC[C@@H]1[C@H](F)C(=O)N[C@@H]1COc1ncc(C#Cc2nnn(C)n2)c2cc(C(N)=O)c(OC)cc12 [Example 21, 1-(((2S,3S,4S)-3-ethyl-4-fluoro-5-oxopyrrolidin-2-yl)methoxy)-7-methoxy-4-((2-methyl-2H-tetrazol-5-yl)ethynyl)isoquinoline-6-carboxamide]
[1]
  IC50: 0.022 µM
  IRAK4 Biochemical Assay Max Inhibition (%): 98.0%
[2]; [3]
  IC50: 0.0046 µM
[2]; [4]
  IC50: 0.0031 µM

## CC[C@@H]1[C@H](F)C(=O)N[C@@H]1COc1ncc(C#Cc2ccncc2)c2cc(C(N)=O)c(OC)cc12 [Example 22, 1-(((2S,3S,4S)-3-ethyl-4-fluoro-5-oxopyrrolidin-2-yl)methoxy)-7-methoxy-4-(pyridin-4-ylethynyl)isoquinoline-6-carboxamide]
[1]
  IC50: 0.023 µM
  IRAK4 Biochemical Assay Max Inhibition (%): 100.0%
[2]; [3]
  IC50: 0.0008 µM
[2]; [4]
  IC50: 0.0034 µM

## CC[C@@H]1[C@H](F)C(=O)N[C@@H]1COc1ncc(C#CCOC)c2cc(C(N)=O)c(OC(C)C)cc12 [Example 25, 1-(((2S,3S,4S)-3-ethyl-4-fluoro-5-oxopyrrolidin-2-yl)methoxy)-7-isopropoxy-4-(3-methoxyprop-1-yn-1-yl)isoquinoline-6-carboxamide]
[1]
  IC50: 0.027 µM
  IRAK4 Biochemical Assay Max Inhibition (%): 103.0%
[2]; [3]
  IC50: 0.0039 µM
[2]; [4]
  IC50: 0.005 µM

## CC[C@@H]1[C@H](F)C(=O)N[C@@H]1COc1ncc(C#Cc2ccccc2)c2cc(C(N)=O)c(OC)cc12 [Example 27, 1-(((2S,3S,4S)-3-ethyl-4-fluoro-5-oxopyrrolidin-2-yl)methoxy)-7-methoxy-4-(phenylethynyl)isoquinoline-6-carboxamide]
[1]
  IC50: 0.024 µM
  IRAK4 Biochemical Assay Max Inhibition (%): 100.0%
[2]; [3]
  IC50: 0.0018 µM
[2]; [4]
  IC50: 0.0053 µM

## CC[C@@H]1[C@H](F)C(=O)N[C@@H]1COc1ncc(C#CC(C)(C)OC)c2cc(C(N)=O)c(OC)cc12 [Example 28, 1-(((2S,3S,4S)-3-ethyl-4-fluoro-5-oxopyrrolidin-2-yl)methoxy)-7-methoxy-4-(3-methoxy-3-methylbut-1-yn-1-yl)isoquinoline-6-carboxamide]
[1]
  IC50: 0.037 µM
  IRAK4 Biochemical Assay Max Inhibition (%): 100.0%
[2]; [3]
  IC50: 0.0092 µM
[2]; [4]
  IC50: 0.0055 µM

## CC[C@@H]1[C@H](F)C(=O)N[C@@H]1COc1ncc(C#CC(C)(C)O)c2cc(C(N)=O)c(OC(C)C)cc12 [Example 29, 1-(((2S,3S,4S)-3-ethyl-4-fluoro-5-oxopyrrolidin-2-yl)methoxy)-4-(3-hydroxyl-3-methylbut-1-yn-1-yl)-7-isopropoxyisoquinoline-6-carboxamide]
[1]
  IC50: 0.026 µM
  IRAK4 Biochemical Assay Max Inhibition (%): 100.0%
[2]; [3]
  IC50: 0.0035 µM
[2]; [4]
  IC50: 0.0067 µM

## CC[C@@H]1[C@H](F)C(=O)N[C@@H]1COc1ccc(C#CC(C)(C)O)c2cc(C(N)=O)c(OC)cc12 [Example 31, 5-(((2S,3S,4S)-3-ethyl-4-fluoro-5-oxopyrrolidin-2-yl)methoxy)-8-(3-hydroxyl-3-methylbut-1-yn-1-yl)-3-methoxy-2-naphthamide]
[1]
  IC50: 0.032 µM
  IRAK4 Biochemical Assay Max Inhibition (%): 95.0%
[2]; [3]
  IC50: 0.0056 µM
[2]; [4]
  IC50: 0.0083 µM

## CC[C@@H]1[C@H](F)C(=O)N[C@@H]1COc1ncc(C#CC(C)(C)C)c2cc(C(N)=O)c(OC)cc12 [Example 32, 4-(3,3-dimethylbut-1-yn-1-yl)-1-(((2S,3S,4S)-3-ethyl-4-fluoro-5-oxopyrrolidin-2-yl)methoxy)-7-methoxyisoquinoline-6-carboxamide]
[1]
  IC50: 0.045 µM
  IRAK4 Biochemical Assay Max Inhibition (%): 99.0%
[2]; [3]
  IC50: 0.017 µM
[2]; [4]
  IC50: 0.011 µM

## CC[C@@H]1[C@H](F)C(=O)N[C@@H]1COc1ccc(C#CC(C)(C)N(C)C)c2cc(C(N)=O)c(OC)cc12 [Example 33, 8-(3-(dimethylamino)-3-methylbut-1-yn-1-yl)-5-(((2S,3S,4S)-3-ethyl-4-fluoro-5-oxopyrrolidin-2-yl)methoxy)-3-methoxy-2-naphthamide]
[1]
  IC50: 0.013 µM
  IRAK4 Biochemical Assay Max Inhibition (%): 99.0%
[2]; [3]
  IC50: 0.041 µM
[2]; [4]
  IC50: 0.025 µM

## CC[C@@H]1[C@H](F)C(=O)N[C@@H]1COc1ncc(C#CC(C)(C)N(C)C)c2cc(C(N)=O)c(OC)cc12 [Example 34, 4-(3-(dimethylamino)-3-methylbut-1-yn-1-yl)-1-(((2S,3S,4S)-3-ethyl-4-fluoro-5-oxopyrrolidin-2-yl)methoxy)-7-methoxyisoquinoline-6-carboxamide]
[1]
  IC50: 0.0089 µM
  IRAK4 Biochemical Assay Max Inhibition (%): 92.0%
[2]; [3]
  IC50: 0.046 µM
[2]; [4]
  IC50: 0.032 µM

## CC[C@@H]1[C@H](F)C(=O)N[C@@H]1COc1ncc(C#CC(C)(C)N(C)C)c2cc(C(N)=O)c(OC(C)C)cc12 [Example 35, 4-(3-(dimethylamino)-3-methylbut-1-yn-1-yl)-1-(((2S,3S,4S)-3-ethyl-4-fluoro-5-oxopyrrolidin-2-yl)methoxy)-7-isopropoxyisoquinoline-6-carboxamide]
[1]
  IC50: 0.039 µM
  IRAK4 Biochemical Assay Max Inhibition (%): 93.0%
[2]; [3]
  IC50: 0.11 µM
[2]; [4]
  IC50: 0.036 µM
